From patent US11878013B2, “Isoquinoline derivative, preparing method thereof, and pharmaceutical composition for preventing or treating autophagy related diseases containing the same as an active ingredient” (Korea Research Institute of Chemical Technology, priority 2021, dated 2024)

Test system: artificial skin tissue
Assay: Skin toxicity test on artificial skin (MTT)
Type: cell-based
Protocol: In order to evaluate the skin toxicity that may be induced upon skin contact of the compound of Example 1 of the present invention, the following experiment was performed using the artificial skin prepared with a structure similar to the skin of a living body.
Particularly, the experiment was performed according to OECD Guideline for the Testing of Chemicals No. 439, OECD (2010) and the method recommended by the manufacturer (Tegoscience).
First, the artificial skin cultured in agarose medium was transferred to a 12-well cell culture plate, to which culture medium was added, followed by culture in a humidified 37° C. 5% CO2 incubator for one day. The medium on the artificial skin culture surface was eliminated, and 90 μl of the compound of Example 1 of the present invention diluted with PBS was evenly applied to the skin surface, followed by incubation at room temperature for 15 minutes. The cell surface was washed twice with 10 ml of PBS, and a fresh culture medium was added, followed by incubation in a humidified 37° C. 5% CO2 incubator for 42 hours. In order to measure the viability of the skin, the artificial skin was transferred to a 12-well plate containing 2 ml of MTT solution (0.3 mg/ml), followed by culture for 3 hours. The stained artificial skin tissue was taken and transferred to a tube containing 500 μl of 0.04 N-isopropanol, and then incubated with shaking for 4 hours to decolorize. The solution was centrifuged at 13,000 rpm for 5 minutes, 100 μl of the supernatant was transferred to each well of a 96-well plate, and absorbance was measured at 570 nm.

With `[O-][S+](c1ccc(F)cc1)c1nccc2ccccc12` (centres unmarked) [Example 1, 1-((4-Fluorophenyl)Sulfinyl)Isoquinoline] the “survival rate of artificial skin” value (50 μM, the maximum concentration) was “slight decrease of the survival rate” and the “survival rate of artificial skin” value (up to 20 μM) was “no significant decrease of the survival rate”.
